# Reference: US20230391752A1, “PYRROLIDINE-3-CARBOXAMIDE DERIVATIVES AND RELATED USES” (Chulalongkorn University, priority 2020, published 2023)
# Assays:
# [1] = test system: HBV; assay: In vitro anti-HBV activity in HepG2.2.15 cell line (intracellular HBV DNA by qPCR at 1 μM); format: cell-based; details: Hepatitis B virus, 144 h; HepG2.2.15 cells, 1 μM compound, 6 days, intracellular HBV DNA as percentage compared to vehicle control (0.5% DMSO)
# Summary of the method: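 Intracellular HBV DNA was quantified by qPCR and given as percent of vehicle (0.5% DMSO), grouped into letter ranges. Stably transfected HepG2.2.15 cells had 6 days of exposure to 1 μM compound, with medium and compound renewed after day 3.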
# [2] = target: T1, HBV core protein (Cp149) (Hepatitis B virus genotype D subtype ayw, UniProt P03146); assay: HBV capsid assembly by size exclusion chromatography (SEC); format: biochemical; details: 50 μM compound, 15 μM Cp149, 16 hours at 21° C.
# T1 construct: HBV core C-terminally truncated protein (HBV Cp149); made in house
# T1 sequence (P03146 1-149): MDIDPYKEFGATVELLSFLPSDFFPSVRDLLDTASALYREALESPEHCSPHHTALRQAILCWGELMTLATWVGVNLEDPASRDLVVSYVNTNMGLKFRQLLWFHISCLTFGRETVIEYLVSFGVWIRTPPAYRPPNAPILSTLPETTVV
Compound,activity at 1 µM [1],Size of induced capsids based on SEC retention times [2]
"N#Cc1c(C(=O)N2CC[C@H](C(=O)Nc3cc(F)c(F)c(F)c3)C2)[nH]c2ccccc12 [Example 45, (S)-1-(3-cyano-1H-indole-2-carbonyl)-N-(3,4,5-trifluorophenyl)pyrrolidine-3-carboxamide]",60 to 70%,induced capsids similar in size to NVR 3-778
"O=C(Nc1cc(F)c(F)c(F)c1)[C@H]1CCN(C(=O)c2ccc(Cl)[nH]2)C1 [Example 52, (S)-1-(5-chloro-1H-pyrrole-2-carbonyl)-N-(3,4,5-trifluorophenyl)pyrrolidine-3-carboxamide]",70 to 80%,induced capsids similar in size to NVR 3-778
"Cc1c(-c2ccc(C(=O)N3CC[C@H](C(=O)Nc4cc(F)c(F)c(F)c4)C3)[nH]2)cnc2[nH]ccc12 [Example 129, (S)-1-(5-(4-methyl-1H-pyrrolo[2,3-b]pyridin-5-yl)-1H-pyrrole-2-carbonyl)-N-(3,4,5-trifluorophenyl)pyrrolidine-3-carboxamide]",< 45%,induced capsids similar in size to NVR 3-778
"Cc1ncnc(C)c1-c1ccc2cc(C(=O)N3CC[C@H](C(=O)Nc4cc(F)c(F)c(F)c4)C3)[nH]c2c1 [Example 132, (S)-1-(6-(4,6-dimethylpyrimidin-5-yl)-1H-indole-2-carbonyl)-N-(3,4,5-trifluorophenyl) pyrrolidine-3-carboxamide]",45 to 60%,induced capsids similar in size to NVR 3-778
"Cc1ncnc(C)c1-c1ccc2c(Cl)c(C(=O)N3CC[C@H](C(=O)Nc4cc(F)c(F)c(F)c4)C3)[nH]c2c1 [Example 133, (S)-1-(3-chloro-6-(4,6-dimethylpyrimidin-5-yl)-1H-indole-2-carbonyl)-N-(3,4,5-trifluorophenyl)pyrrolidine-3-carboxamide]",45 to 60%,capsid retention times between BAY 41-4109 and NVR 3-778
"Cc1nccnc1-c1ccc2c(Cl)c(C(=O)N3CC[C@H](C(=O)Nc4ccc(F)c(C#N)c4)C3)[nH]c2c1 [Example 139, (S)-1-(3-chloro-6-(3-methylpyrazin-2-yl)-1H-indole-2-carbonyl)-N-(3-cyano-4-fluorophenyl) pyrrolidine-3-carboxamide]",< 45%,capsid retention times between BAY 41-4109 and NVR 3-778
"O=C(Nc1cc(F)c(F)c(F)c1)[C@H]1CCN(C(=O)c2[nH]c3ccccc3c2-c2cn[nH]c2)C1 [Example 140, (S)-1-(3-(1H-pyrazol-4-yl)-1H-indole-2-carbonyl)-N-(3,4,5-trifluorophenyl)pyrrolidine-3-carboxamide]",> 90%,–
O=C(c1cccnc1)c1ccc(C(=O)N2CC[C@H](C(=O)Nc3cc(F)c(F)c(F)c3)C2)[nH]1 [Example 142],> 90%,–
"O=C(Nc1cc(F)c(F)c(F)c1)[C@H]1CCN(C(=O)c2ccc(Cc3cccnc3)[nH]2)C1 [Example 143, (S)-1-(5-(pyridin-3-ylmethyl)-1H-pyrrole-2-carbonyl)-N-(3,4,5-trifluorophenyl)pyrrolidine-3-carboxamide]",> 90%,–
"Cc1ncccc1C(=O)c1ccc(C(=O)N2CC[C@H](C(=O)Nc3cc(F)c(F)c(F)c3)C2)[nH]1 [Example 144, (S)-1-(5-(2-methylnicotinoyl)-1H-pyrrole-2-carbonyl)-N-(3,4,5-trifluorophenyl)pyrrolidine-3-carboxamide]",> 90%,–
"Cc1ncccc1Cc1ccc(C(=O)N2CC[C@H](C(=O)Nc3cc(F)c(F)c(F)c3)C2)[nH]1 [Example 145, (S)-1-(5-((2-methylpyridin-3-yl)methyl)-1H-pyrrole-2-carbonyl)-N-(3,4,5-trifluorophenyl)pyrrolidine-3-carboxamide]",70 to 80%,–
"Cc1nn(C)cc1Cc1ccc(C(=O)N2CC[C@H](C(=O)Nc3cc(F)c(F)c(F)c3)C2)[nH]1 [Example 146, (S)-1-(5-((1,3-dimethyl-1H-pyrazol-4-yl)methyl)-1H-pyrrole-2-carbonyl)-N-(3,4,5-trifluorophenyl)pyrrolidine-3-carboxamide]",70 to 80%,–
"Cc1cc(NC(=O)[C@H]2CCN(C(=O)c3ccc(-c4c(C)nn(CC(=O)O)c4C)[nH]3)[C@H]2C)ccc1F [Example 147, 2-(4-(5-((2S,3S)-3-((4-fluoro-3-methylphenyl)carbamoyl)-2-methylpyrrolidine-1-carbonyl)-1H-pyrrol-2-yl)-3,5-dimethyl-1H-pyrazol-1-yl)acetic acid]",45 to 60%,–
"N#Cc1ncccc1-c1ccc(C(=O)N2CC[C@H](C(=O)Nc3ccc(F)c(Cl)c3)C2)[nH]1 [Example 148, (S)—N-(3-chloro-4-fluorophenyl)-1-(5-(2-cyanopyridin-3-yl)-1H-pyrrole-2-carbonyl)pyrrolidine-3-carboxamide]",45 to 60%,–
"Cc1c(-c2ccc(C(=O)N3CC[C@H](C(=O)Nc4cc(F)c(F)c(F)c4)C3)[nH]2)c2ncccc2n1C [Example 152, (S)-1-(5-(1,2-dimethyl-1H-pyrrolo[3,2-b]pyridin-3-yl)-1H-pyrrole-2-carbonyl)-N-(3,4,5-trifluorophenyl)pyrrolidine-3-carboxamide]",> 90%,–
"Cc1c(-c2ccc(C(=O)N3CC[C@H](C(=O)Nc4cc(F)c(F)c(F)c4)C3)[nH]2)c2cccnc2n1C [Example 153, (S)-1-(5-(1,2-dimethyl-1H-pyrrolo[2,3-b]pyridin-3-yl)-1H-pyrrole-2-carbonyl)-N-(3,4,5-trifluorophenyl)pyrrolidine-3-carboxamide]",< 45%,–
"Cn1cc(-c2ccc(C(=O)N3CC[C@H](C(=O)Nc4cc(F)c(F)c(F)c4)C3)[nH]2)c2ccncc21 [Example 158, (S)-1-(5-(1-methyl-1H-pyrrolo[2,3-c]pyridin-3-yl)-1H-pyrrole-2-carbonyl)-N-(3,4,5-trifluorophenyl)pyrrolidine-3-carboxamide]",60 to 70%,–
"Cc1cc(NC(=O)[C@@H]2CN(C(=O)c3[nH]c4ccccc4c3Cl)C[C@H]2C)ccc1F [Example 167, (3S,4S)-1-(3-chloro-1H-indole-2-carbonyl)-N-(4-fluoro-3-methylphenyl)-4-methylpyrrolidine-3-carboxamide]",45 to 60%,–
"Cc1cc(NC(=O)[C@@H]2CN(C(=O)c3ccc(-c4c(C)ncnc4C)[nH]3)C[C@H]2C)ccc1F [Example 168, (3S,4S)-1-(5-(4,6-dimethylpyrimidin-5-yl)-1H-pyrrole-2-carbonyl)-N-(4-fluoro-3-methylphenyl)-4-methylpyrrolidine-3-carboxamide]",45 to 60%,–
"Cc1cc(NC(=O)[C@@H]2CN(C(=O)c3ccc(-c4c(C)n[nH]c4C)[nH]3)C[C@H]2C)ccc1F [Example 169, (3S,4S)-1-(5-(3,5-dimethyl-1H-pyrazol-4-yl)-1H-pyrrole-2-carbonyl)-N-(4-fluoro-3-methylphenyl)-4-methylpyrrolidine-3-carboxamide]",< 45%,–
"Cc1ncnc(C)c1-c1ccc(C(=O)N2CC[C@H](C(=O)Nc3ccc(F)c(C4CC4)c3)[C@@H]2C)[nH]1 [Example 170, (2S,3S)—N-(3-cyclopropyl-4-fluorophenyl)-1-(5-(4,6-dimethylpyrimidin-5-yl)-1H-pyrrole-2-carbonyl)-2-methylpyrrolidine-3-carboxamide]",< 45%,–
